Legend:
CD133+ glioma stem cells = test: Clonogenic survival assay (neurosphere formation); format: cell-based, human; conditions: T4302, 3-Gy radiation
From the text: FIG. 1 is a series of graphs illustrating that γ-secretase inhibitors reduce cell growth and clonogenic survival of glioma stem cells following radiation. (A) T4302 CD133+ glioma stem cells were transfected with a Notch-responsive luciferase reporter (RBP-JK reporter) pre-mixed with the vector directing constitutive expression of Renilla luciferase. Cells were left unirradiated or irradiated at 3 Gy, and were then collected to measure luciferase activities at time points as indicated. […] The relative mRNA levels of Hes2 were determined by quantitative real-time PCR at the time points as indicated. […] Total viable cell numbers were then determined by the CellTiter-Glo Luminescent Cell Viability Assay (Promega) for the following five days. […] Cells were then plated to form neurospheres, and the surviving fractions were determined as described in methods. […] (F,G) Neurosphere formation of T3359 and T4105 CD 133+ cells treated with GSIs alone, 3-Gy radiation alone, or the combination was determined as described in FIG. 1E. *: p<0.05 by Student's t-test; #: p<0.001 by one-way ANOVA.
To measure clonogenic survival, CD133+ glioma cells were plated in 24-well plates at 50 cells per well for the sham-irradiated groups, 100 cells per well for cells irradiated at 1 Gy, or 500 cells per well for cells irradiated at 2 or 3 Gy. […] Fourteen days after plating, neurospheres containing more than 50 cells were scored. […]

T4302 CD133+ cells = test: Trypan blue exclusion assay; format: cell-based, human; conditions: two days after 3-Gy radiation
Experimental: FIG. 2 is a series of graphs illustrating that γ-secretase inhibitors enhance radiation-induced cell death in glioma stem cells. (A) T4302 CD 133+ cells were pre-treated with DAPT or L685,458 for 4 hours and irradiated at 3 Gy. Percentage of dead cells was determined by trypan blue exclusion assay at 48 hours after radiation exposure. (B) T4302 CD 133+ cells were treated with GSIs ±radiation as indicated. Cells were then plated at 3000 cells per well in 96-well plates. Relative caspase 3/7 activities were determined by normalizing caspase activities to the corresponding cell titers. (C) T4302 CD 133+ cells were treated as described in FIG. 2A. 24 or 48 hours after radiation exposure, cells were labeled with FITC-conjugated Annexin V staining kit (BD Sciences) according to manufacturer's instructions and analyzed by flow cytometry. (D) T4302 CD 133+ cells were pre-treated with 2 μM DAPT for 4 hours, and were left unirradiated or irradiated at 1, 2 or 3 Gy. Relative caspase 3/7 activities were determined at 72 hours after radiation. (E) T4302 CD133+ cells were pre-treated with DAPT at indicated concentrations for 4 hours and irradiated at 3 Gy. Relative caspase activities were determined at 48 or 72 hours after radiation. *: p<0.01 by Student's t-test; #: p<0.01 by one-way ANOVA.

Chk1 and Chk2 = test: Immunoblotting of activating phosphorylation of Chk1 and Chk2; format: cell-based, human; conditions: following radiation, pretreated 24 hours
Experimental: (A) T4302 CD133+ cells were pretreated with DPAT or L685,458 for 24 hours prior radiation. One hour after radiation exposure, cells were harvested. The levels of activating phosphorylation of Chk1 and Chk2 were assessed by immunoblotting. (B) T4302 CD133+ cells were treated with 2 μM DAPT at 4, 24 hours prior to radiation (−24 hrs, or -4 hrs), or at 0, 4, 24 hours after radiation. Relative caspase 3/7 activities were measured 3 days after radiation exposure. *: p<0.001 by Student's t-test.
Antibodies, DNA constructs, lentiviruses and other reagents. The antibodies purchased from Cell Signaling Technology (Danvers, M A) include phosphor-S296-Chk1 (2349), total Chk1 (2345), phosphor-T68-Chk2 (2661), total Chk2 (2662), phospho-5473 Akt (#9271), total Akt (#9272), PTEN (#9556), phospho-S15-p53 (#9286), Bcl-2 (#2870), Bcl-xL (#2764), Mcl-1 (#4572), Puma (#4976). Other antibodies used in this study are p53 antibody (#sc-126, Santa Cruz Biotechnology, Santa Cruz, Calif.), and actin antibody (Millipore, Billerica, Mass.). The pcDNA3-Notch1 construct was kindly provided by Dr. Spyros Artavanis-Tsakonas, Harvard University. The coding sequences of intracellular domain of Notch1 (amino acid residues 1744-2556) was amplified by PCR and subcloned into the lentiviral vector pCDH-CMV-EF1-puro (System Biosciences, Mountain View, Calif.) through the EcoRI and NotI sites. […]

γ-secretase = conditions: as suggested by the manufacturer; cited from earlier work

CC(NC(=O)Cc1cc(F)cc(F)c1)C(=O)NC(C(=O)OC(C)(C)C)c1ccccc1 [DAPT, N-[N-(3,5-Difluorophenacetyl-L-alanyl)]-S-phenylglycine t-Butyl Ester]
clonogenic survival of irradiated NICD2-expressing cells (CD133+ glioma stem cells): did not significantly alter
dead cells (T4302 CD133+ cells): 60%
activating phosphorylation of Chk1 or Chk2 (Chk1 and Chk2): Neither of DAPT or L685,458 significantly altered
IC50 (γ-secretase): 200 nM

From US20110059114A1, “Compositions and Methods for the Treatment of Radioresistant Glioma Stem Cells” (DUKE UNIVERSITY, priority 2009, published 2011)
